Results as given in patent US6355799B1, “Substituted benzene compounds, process for their preparation, and herbicidal and defoliant compositions containing them” (ISK Americas Incorporated, priority 1997, dated 2002).

Columns and labels:
Format in all cases: in vivo
[1] = system: redroot pigweed (Amaranthus retroflexus, AMARE); assay: Pre-emerge test, greenhouse herbicide activity screening; conditions: rating scale 0-100, 14 days after application
In short: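 Sandy loam pots; pre-emerge: sown 1 d pre-spray, surface-watered after, then bottom-watered. Post-emerge: sown 8–21 d before, 2–3 leaf stage, + 0.25% v/v NIS, bottom-watered. Acetone, 187 l/ha track spray, 15–1000 g ai/ha. 0–100 injury score, day 14.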

[2] = system: barnyardgrass (Echinochloa crus-galli, ECHCG); assay: as above; conditions: rating scale 0-100, 14 days after application
In short: (§1)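 Rating: 0–100 visual injury, 14 DAA. Application: acetone, 187 l/ha, 15–1000 g ai/ha, flat-fan track sprayer with nozzle 40–45 cm above soil or canopy. Post-emerge runs used 0.25% v/v surfactant on 2–3 leaf plants.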

[3] = system: common ragweed (Ambrosia artemisizfolia L., AMBEL); assay: as above; conditions: rating scale 0-100, 14 days after application
In short: as §1

[4] = system: green foxtail (Setaria viridis, SETVI); assay: as above; conditions: rating scale 0-100, 14 days after application
In short: as §1

[5] = system: ivyleaf morningglory (Ipomoea hederacea, IPOHE); assay: as above; conditions: rating scale 0-100, 14 days after application
In short: as §1

[6] = system: johnsongrass (Sorghum halepense, SORHA); assay: as above; conditions: rating scale 0-100, 14 days after application
In short: as §1

[7] = system: lambsquarters (Chenopodium album, CHEAL); assay: as above; conditions: rating scale 0-100, 14 days after application
In short: as §1

[8] = system: large crabgrass (Digitaria sanguinalis, DIGSA); assay: as above; conditions: rating scale 0-100, 14 days after application
In short: as §1

[9] = system: sicklepod (Cassia obtusifolia, CASOB); assay: as above; conditions: rating scale 0-100, 14 days after application
In short: as §1

[10] = system: velvetleaf (Abutilon theophrasti, ABUTH); assay: as above; conditions: rating scale 0-100, 14 days after application
In short: as §1

[11] = system: field corn (Zea mays L., var. Dekalb 535, CORN); assay: Pre-emerge test, crop safety; conditions: rating scale 0-100, 14 days after application
In short: (§2)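 Plants grown in 10 cm pots of sandy loam mix received acetone-dissolved compounds through a moving flat-fan nozzle. Doses ranged from 15 to 1000 g ai/ha. Pre-emerge pots were seeded one day earlier, post-emerge pots 8–21 days earlier. Fourteen days on, each pot was graded 0–100 for damage.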

[12] = system: upland rice (Oryza sp., var. Tebonnet, RICE); assay: Pre-emerge test, crop safety; conditions: rating scale 0-100, 14 days after application
In short: as §2

[13] = system: barnyardgrass (Echinochloa crus-galli, ECHCG); assay: Post-emerge test, greenhouse herbicide activity screening; conditions: rating scale 0-100 (0 no damage, 100 complete death), 14 days after application
In short: (§3)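 Fourteen days after spraying, crop and weed injury was graded visually from 0, no effect, to 100, every plant dead. Test substances were dissolved in acetone and applied at 15–1000 g ai/ha with a flat-fan nozzle. Application was either pre-emergence, one day after sowing, or post-emergence at the 2–3 leaf stage.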

[14] = system: common ragweed (Ambrosia artemisizfolia L., AMBEL); assay: as above; conditions: rating scale 0-100 (0 no damage, 100 complete death), 14 days after application
In short: as §3

[15] = system: green foxtail (Setaria viridis, SETVI); assay: as above; conditions: rating scale 0-100 (0 no damage, 100 complete death), 14 days after application
In short: as §3

[16] = system: ivyleaf morningglory (Ipomoea hederacea, IPOHE); assay: as above; conditions: rating scale 0-100 (0 no damage, 100 complete death), 14 days after application
In short: as §3

[17] = system: lambsquarters (Chenopodium album, CHEAL); assay: as above; conditions: rating scale 0-100 (0 no damage, 100 complete death), 14 days after application
In short: as §3

[18] = system: large crabgrass (Digitaria sanguinalis, DIGSA); assay: as above; conditions: rating scale 0-100 (0 no damage, 100 complete death), 14 days after application
In short: as §3

[19] = system: redroot pigweed (Amaranthus retroflexus, AMARE); assay: as above; conditions: rating scale 0-100 (0 no damage, 100 complete death), 14 days after application
In short: as §3

[20] = system: sicklepod (Cassia obtusifolia, CASOB); assay: as above; conditions: rating scale 0-100 (0 no damage, 100 complete death), 14 days after application
In short: as §3

[21] = system: velvetleaf (Abutilon theophrasti, ABUTH); assay: as above; conditions: rating scale 0-100 (0 no damage, 100 complete death), 14 days after application
In short: as §3

[22] = system: field corn (Zea mays L., var. Dekalb 535, CORN); assay: Post-emerge test, crop safety; conditions: rating scale 0-100 (0 no damage, 100 complete death), 14 days after application
In short: as §2

[23] = system: upland rice (Oryza sp., var. Tebonnet, RICE); assay: Post-emerge test, crop safety; conditions: rating scale 0-100 (0 no damage, 100 complete death), 14 days after application
In short: as §2

## CCCCOC(=O)C(Cl)Cc1c(OC)c(Cl)cc(F)c1-n1c(=O)cc(C(F)(F)F)n(C)c1=O (single isomer, unassigned) [14-8]
[1]; 63 g ai/ha
  Pre-emerge herbicidal activity, phytotoxicity rating AMARE: 100
[1]; 250 g ai/ha
  Pre-emerge herbicidal activity, phytotoxicity rating AMARE: 99
[2]; 63 g ai/ha
  Pre-emerge herbicidal activity, phytotoxicity rating ECHCG: 0
[2]; 250 g ai/ha
  Pre-emerge herbicidal activity, phytotoxicity rating ECHCG: 20
[3]; 63 g ai/ha
  Pre-emerge herbicidal activity, phytotoxicity rating AMBEL: 0
[3]; 250 g ai/ha
  Pre-emerge herbicidal activity, phytotoxicity rating AMBEL: 40
[4]; 63 g ai/ha
  Pre-emerge herbicidal activity, phytotoxicity rating SETVI: 0
[4]; 250 g ai/ha
  Pre-emerge herbicidal activity, phytotoxicity rating SETVI: 0
[5]; 63 g ai/ha
  Pre-emerge herbicidal activity, phytotoxicity rating IPOHE: 0
[5]; 250 g ai/ha
  Pre-emerge herbicidal activity, phytotoxicity rating IPOHE: 0
[6]; 63 g ai/ha
  Pre-emerge herbicidal activity, phytotoxicity rating SORHA: 0
[6]; 250 g ai/ha
  Pre-emerge herbicidal activity, phytotoxicity rating SORHA: 0
[7]; 63 g ai/ha
  Pre-emerge herbicidal activity, phytotoxicity rating CHEAL: 70
[7]; 250 g ai/ha
  Pre-emerge herbicidal activity, phytotoxicity rating CHEAL: 95
[8]; 63 g ai/ha
  Pre-emerge herbicidal activity, phytotoxicity rating DIGSA: 40
[8]; 250 g ai/ha
  Pre-emerge herbicidal activity, phytotoxicity rating DIGSA: 100
[9]; 63 g ai/ha
  Pre-emerge herbicidal activity, phytotoxicity rating CASOB: 0
[9]; 250 g ai/ha
  Pre-emerge herbicidal activity, phytotoxicity rating CASOB: 0
[10]; 63 g ai/ha
  Pre-emerge herbicidal activity, phytotoxicity rating ABUTH: 0
[10]; 250 g ai/ha
  Pre-emerge herbicidal activity, phytotoxicity rating ABUTH: 40
[11]; 63 g ai/ha
  Pre-emerge phytotoxicity rating, crop damage CORN: 0
[11]; 250 g ai/ha
  Pre-emerge phytotoxicity rating, crop damage CORN: 0
[12]; 63 g ai/ha
  Pre-emerge phytotoxicity rating, crop damage RICE: 0
[12]; 250 g ai/ha
  Pre-emerge phytotoxicity rating, crop damage RICE: 0
[13]; Rate 63 g ai/ha
  Post-emerge Herbicidal Activity, phytotoxicity rating ECHCG: 95
[13]; Rate 250 g ai/ha
  Post-emerge Herbicidal Activity, phytotoxicity rating ECHCG: 99
[14]; Rate 63 g ai/ha
  Post-emerge Herbicidal Activity, phytotoxicity rating AMBEL: 10
[14]; Rate 250 g ai/ha
  Post-emerge Herbicidal Activity, phytotoxicity rating AMBEL: 50
[15]; Rate 63 g ai/ha
  Post-emerge Herbicidal Activity, phytotoxicity rating SETVI: 10
[15]; Rate 250 g ai/ha
  Post-emerge Herbicidal Activity, phytotoxicity rating SETVI: 40
[16]; Rate 63 g ai/ha
  Post-emerge Herbicidal Activity, phytotoxicity rating IPOHE: 30
[16]; Rate 250 g ai/ha
  Post-emerge Herbicidal Activity, phytotoxicity rating IPOHE: 95
[17]; Rate 63 g ai/ha
  Post-emerge Herbicidal Activity, phytotoxicity rating CHEAL: 70
[17]; Rate 250 g ai/ha
  Post-emerge Herbicidal Activity, phytotoxicity rating CHEAL: 99
[18]; Rate 63 g ai/ha
  Post-emerge Herbicidal Activity, phytotoxicity rating DIGSA: 40
[18]; Rate 250 g ai/ha
  Post-emerge Herbicidal Activity, phytotoxicity rating DIGSA: 85
[19]; Rate 63 g ai/ha
  Post-emerge Herbicidal Activity, phytotoxicity rating AMARE: 90
[19]; Rate 250 g ai/ha
  Post-emerge Herbicidal Activity, phytotoxicity rating AMARE: 100
[20]; Rate 63 g ai/ha
  Post-emerge Herbicidal Activity, phytotoxicity rating CASOB: 30
[20]; Rate 250 g ai/ha
  Post-emerge Herbicidal Activity, phytotoxicity rating CASOB: 80
[21]; Rate 63 g ai/ha
  Post-emerge Herbicidal Activity, phytotoxicity rating ABUTH: 60
[21]; Rate 250 g ai/ha
  Post-emerge Herbicidal Activity, phytotoxicity rating ABUTH: 100
[22]; Rate 63 g ai/ha
  Post-emerge phytotoxicity rating CORN (crop damage): 40
[22]; Rate 250 g ai/ha
  Post-emerge phytotoxicity rating CORN (crop damage): 80
[23]; Rate 63 g ai/ha
  Post-emerge phytotoxicity rating RICE (crop damage): 5
[23]; Rate 250 g ai/ha
  Post-emerge phytotoxicity rating RICE (crop damage): 30
